Among the test systems are SK-OV-3 ovarian; RXF 393 renal; SR leukemia; NCI-H226 lung; 786-0 renal; RPMI-8226 leukemia; TK-10 renal; U251 CNS; SF-268 CNS; IGROV1 ovarian.
Holding throughout (assay): NCI anticancer screen, dose series, 48 h

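Grown in 96-well plates, cells were treated for 48 hours with each compound at five concentrations. Insufficient inhibition: endpoint recorded as highest concentration tested. GI50 marks 50% less growth. TGI is the concentration that stops growth completely.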 Some results are limits rather than exact numbers.

For `CSc1nc(SC)c2c(C(N)=S)[nH]nc2n1`, the TGI is 70.5 µM in the test with SK-OV-3 ovarian; 61 µM in the test on RXF 393 renal; 87.1 µM in the test with SR leukemia; 62.6 µM in the test on NCI-H226 lung; > 100 µM in the test on 786-0 renal; 67.8 µM in the test on RPMI-8226 leukemia. Moreover, the TGI with TK-10 renal was 63.5 µM; in the test with U251 CNS, 46.1 µM; in the test on SF-268 CNS it was > 100 µM; in the test on IGROV1 ovarian it was 94.4 µM.
For `CCOc1ccc2nc(-c3cccc(OCC(=O)NC(C)C)c3)nc(Nc3ccc(-c4cn[nH]c4)cc3)c2c1`, the GI50 with SK-OV-3 ovarian was 4.53 µM; in the test on RXF 393 renal it was 0.401 µM; in the test on SR leukemia it was 1.13 µM; with NCI-H226 lung it was 0.783 µM; with 786-0 renal it was 0.553 µM; in the test with RPMI-8226 leukemia, 0.232 µM. Moreover, the GI50 in the test on TK-10 renal is 1.89 µM; in the test with U251 CNS it was 0.431 µM; with SF-268 CNS, 1.35 µM; with IGROV1 ovarian it was 0.927 µM. The TGI in the test on SK-OV-3 ovarian was 13 µM; in the test with RXF 393 renal it was 2.16 µM; with SR leukemia, > 43 µM; with NCI-H226 lung, 3.19 µM; in the test with 786-0 renal, 2.63 µM; in the test on RPMI-8226 leukemia it was 4.9 µM. Further, the TGI in the test with TK-10 renal was 5.2 µM; in the test on U251 CNS, 2.15 µM; with SF-268 CNS it was 7 µM; in the test on IGROV1 ovarian, 7.4 µM.
For the molecule `c1cncc(-c2nc3ccccc3s2)c1`, the GI50 in the test on SK-OV-3 ovarian is > 100 µM; with RXF 393 renal it was 64.7 µM; in the test with SR leukemia, > 100 µM; in the test with NCI-H226 lung, > 100 µM; in the test on 786-0 renal, > 100 µM; with RPMI-8226 leukemia, 99.4 µM. Further, the GI50 was > 100 µM in the test with TK-10 renal, 97 µM in the test with U251 CNS, > 100 µM with SF-268 CNS and 42.6 µM in the test on IGROV1 ovarian. Further, the TGI in the test on SK-OV-3 ovarian, with RXF 393 renal, in the test on SR leukemia, with NCI-H226 lung, with 786-0 renal and with RPMI-8226 leukemia was > 100 µM in each case. Moreover, the TGI in the test with TK-10 renal, in the test with U251 CNS, in the test with SF-268 CNS and with IGROV1 ovarian was > 100 µM in each case.
On to `COc1ccc2nc3cc([N+](=O)[O-])ccc3c(NCCCN(CCO)CCO)c2c1`, for which the GI50 in the test with SK-OV-3 ovarian was 12.7 µM; in the test on RXF 393 renal, 2.93 µM; in the test on SR leukemia, 1.97 µM; with NCI-H226 lung, 8.1 µM; with 786-0 renal, 4.09 µM; in the test on RPMI-8226 leukemia it was 2.28 µM. In addition, the GI50 in the test with TK-10 renal is 5.95 µM; in the test on U251 CNS, 3.57 µM; with SF-268 CNS, 4.09 µM; in the test on IGROV1 ovarian it was 2.51 µM. Further, the TGI with SK-OV-3 ovarian worked out at 17.2 µM; in the test on RXF 393 renal it was 11.5 µM; in the test with SR leukemia, 14.3 µM; in the test on NCI-H226 lung, 21.5 µM; in the test on 786-0 renal, 21.1 µM; in the test with RPMI-8226 leukemia it was 8.9 µM. The TGI was 22 µM in the test with TK-10 renal, 13.4 µM with U251 CNS, 10.8 µM in the test on SF-268 CNS and 7.13 µM with IGROV1 ovarian.
On to `Cn1c(/C=C(\C#N)c2cccc(C(F)(F)F)c2)nc2c(N3CCOCC3)nc(Cl)nc21`, for which the GI50 in the test with SK-OV-3 ovarian is 3.7 µM; with RXF 393 renal it was 0.613 µM; in the test with SR leukemia, 0.337 µM; in the test on NCI-H226 lung, 1.36 µM; with 786-0 renal, 1.43 µM; with RPMI-8226 leukemia, 0.252 µM. Further, the GI50 is 1.72 µM in the test on TK-10 renal, 1.32 µM in the test with U251 CNS, 1.51 µM in the test on SF-268 CNS and 0.556 µM in the test on IGROV1 ovarian. Also, the TGI in the test on SK-OV-3 ovarian came to 14.5 µM; with RXF 393 renal, 1.93 µM; with SR leukemia, 1.86 µM; in the test on NCI-H226 lung, 3.18 µM; in the test with 786-0 renal it was 2.82 µM; in the test with RPMI-8226 leukemia it was 0.802 µM. The TGI with TK-10 renal was found to be 3.14 µM; with U251 CNS, 2.73 µM; in the test on SF-268 CNS, 3.25 µM; with IGROV1 ovarian, 1.89 µM.
Take `CN(C)C(=S)/N=c1\ss/c(=N\C(=S)N(C)C)n1-c1ccc(Cl)cc1`: the TGI in the test on SK-OV-3 ovarian, with RXF 393 renal, in the test with SR leukemia, with NCI-H226 lung, with 786-0 renal and in the test with RPMI-8226 leukemia was > 100 µM throughout. The TGI with TK-10 renal, in the test with U251 CNS, in the test with SF-268 CNS and in the test on IGROV1 ovarian was > 100 µM throughout.

(Values after PubChem BioAssay (NCI).)
